These molecules were tested on L-calcium channel benzothiazepine binding site (assay: Binding at the L-calcium channel benzothiazepine binding site (diltiazem binding)). Settings: 10 μM test compound; [3H]-cis-(+)-diltiazem 5 nM; rat cerebral cortex membranes; 20 minutes at 25° C.
Experimental: Biological Data: Investigations on Binding at the L-Calcium Channel Benzothiazepine Binding Site (Diltiazem Binding)
The biological membrane material was isolated from rat cerebral cortex. [^3H]-cis-(+)-diltiazem (5 nM in the batch) was used as ligand. Incubation was for 20 minutes at 25° C. The radioactivity measured in the presence of (±)-diltiazem (10^−6 M in the batch) is defined as the non-specific binding. The non-bound fraction of the radioactive ligand was separated after completion of the incubation, using a filtration process through Whatman glass fiber GF/B membranes. After being washed, the membranes were then measured in a β-counter. The method was developed based on the publication by Schoemaker and Langer (H. Schoemaker and S. Z. Langer (1985) Eur. J. Pharmacol. 111, 273-277).
In the case of `COc1cccc(C2(O)CCCN(C(=O)c3ccc(C)cc3)C2)c1` (centres unmarked) [Example 9, [3-hydroxy-3-(3-methoxyphenyl)-piperidine-1-yl]-p-tolyl-methanone], the “Diltiazem binding [10 μM] % inhibition” value is reported as 55.8%.
`COc1cccc(C2(O)CCCN(Cc3cccc(F)c3)C2)c1.Cl` (centres unmarked) [Example 32, 1-(3-fluorobenzyl)-3-(3-methoxyphenyl)-piperidine-3-ol hydrochloride] was tested, and the “Diltiazem binding [10 μM] % inhibition” value was 83.7%.
For `COc1cccc(C2(O)CCCN(Cc3ccc(F)cc3)C2)c1.Cl` (centres unmarked) [Example 33, 1-(4-fluorobenzyl)-3-(3-methoxyphenyl)-piperidine-3-ol hydrochloride], the “Diltiazem binding [10 μM] % inhibition” value was 95%.
For `COc1cccc(C2(O)CCCN(Cc3ccc(Br)cc3)C2)c1.Cl` (centres unmarked) [Example 34, 1-(4-bromobenzyl)-3-(3-methoxyphenyl)-piperidine-3-ol hydrochloride], the “Diltiazem binding [10 μM] % inhibition” value was 78.7%.
`COc1cccc(C2(O)CCCN(Cc3cc(F)cc(F)c3)C2)c1.Cl` (centres unmarked) [Example 36, 1-(3,5-difluorobenzyl)-3-(3-methoxyphenyl)-piperidine-3-ol hydrochloride] was tested, and the “Diltiazem binding [10 μM] % inhibition” value was 57.4%.
`COc1cccc(C2(O)CCCN(Cc3ccc(Cl)c(Cl)c3)C2)c1.Cl` (centres unmarked) [Example 37, 1-(3,4-dichlorbenzyl)-3-(3-methoxyphenyl)-piperidine-3-ol hydrochloride] was tested, and the “Diltiazem binding [10 μM] % inhibition” value was 80.7%.
With `COc1cccc(C2(O)CCCN(Cc3ccc(C)cc3)C2)c1.Cl` (centres unmarked) [Example 39, 3-(3-methoxyphenyl)-1-(4-methylbenzyl)-piperidine-3-ol hydrochloride] the “Diltiazem binding [10 μM] % inhibition” value was 76%.
In the case of `COc1cccc(C2(O)CCCN(Cc3cccc(C(F)(F)F)c3)C2)c1.Cl` (centres unmarked) [Example 40, 3-(3-methoxyphenyl)-1-(3-trifluoromethylbenzyl)-piperidine-3-ol hydrochloride], the “Diltiazem binding [10 μM] % inhibition” value is reported as 85.9%.
For `COc1cccc(C2(O)CCCN(CCOc3ccccc3)C2)c1.Cl` (centres unmarked) [Example 41, 3-(3-methoxyphenyl)-1-(2-phenoxy-ethyl)-piperidine-3-ol hydrochloride], the “Diltiazem binding [10 μM] % inhibition” value was 92.7%.
For `COc1cccc(C2(O)CCCN(Cc3ccc([N+](=O)[O-])cc3)C2)c1.Cl` (centres unmarked) [Example 42, 3-(3-methoxyphenyl)-1-(4-nitrobenzyl)-piperidine-3-ol hydrochloride], the “Diltiazem binding [10 μM] % inhibition” value was 50%.
`COc1ccc(CN2CCCC(O)(c3cccc(C)c3)C2)cc1.Cl` (centres unmarked) [Example 43, 1-(4-methoxybenzyl)-3-(3-methylphenyl)-piperidine-3-ol hydrochloride] was tested, and the “Diltiazem binding [10 μM] % inhibition” value was 55%.
In the case of `COc1cccc(C2(O)CCCN(Cc3ccc(C#N)cc3)C2)c1.Cl` (centres unmarked) [Example 44, 4-[3-hydroxy-3-(3-methoxyphenyl)-piperidine-1-ylmethyl]-benzonitrile hydrochloride], the “Diltiazem binding [10 μM] % inhibition” value is reported as 52.3%.
For `COc1cccc(C2(O)CCCN(Cc3cccs3)C2)c1.Cl` (centres unmarked) [Example 46, 3-(3-methoxyphenyl)-1-thiophen-2-ylmethyl-piperidine-3-ol hydrochloride], the “Diltiazem binding [10 μM] % inhibition” value was 81.8%.
With `COc1cccc(C2(O)CCCN(CCc3ccccc3)C2)c1.Cl` (centres unmarked) [Example 47, 3-(3-methoxyphenyl)-1-phenethyl-piperidine-3-ol hydrochloride] the “Diltiazem binding [10 μM] % inhibition” value was 79.4%.
With `COc1cccc(C2(O)CCCN(CC(c3ccccc3)c3ccccc3)C2)c1.Cl` (centres unmarked) [Example 48, 1-(2,2-diphenyl-ethyl)-3-(3-methoxyphenyl)-piperidine-3-ol hydrochloride] the “Diltiazem binding [10 μM] % inhibition” value was 88.2%.
In the case of `COc1cccc(C2(O)CCCN(Cc3cccc(Br)c3)C2)c1.Cl` (centres unmarked) [Example 49, 1-(3-bromobenzyl)-3-(3-methoxyphenyl)-piperidine-3-ol hydrochloride], the “Diltiazem binding [10 μM] % inhibition” value is reported as 90.4%.
With `COc1cccc(C2(O)CCCN(Cc3ccc(C)c([N+](=O)[O-])c3)C2)c1.Cl` (centres unmarked) [Example 50, 3-(3-methoxyphenyl)-1-(4-methyl-3-nitro-benzyl)-piperidine-3-ol hydrochloride] the “Diltiazem binding [10 μM] % inhibition” value was 73.8%.
For `COc1cccc(C2(O)CCCN(Cc3ccc(Cl)c([N+](=O)[O-])c3)C2)c1.Cl` (centres unmarked) [Example 51, 1-(4-chloro-3-nitro-benzyl)-3-(3-methoxyphenyl)-piperidine-3-ol hydrochloride], the “Diltiazem binding [10 μM] % inhibition” value was 81.4%.
In the case of `COc1cccc(C2(O)CCCN(Cc3cc(C(F)(F)F)cc(C(F)(F)F)c3)C2)c1.Cl` (centres unmarked) [Example 52, 1-(3,5-bis-trifluoromethyl-benzyl)-3-(3-methoxyphenyl)-piperidine-3-ol hydrochloride], the “Diltiazem binding [10 μM] % inhibition” value is reported as 75.9%.

Same assay, conditions: radioligand; rat cerebral cortex membranes; N=3, mean ±SEM; read-out: KD value for this high affinity binding site
For “[^3H]-cis-(+)-diltiazem [reference compound]”, the Kd was 4.1 ± 0.75 nM.

— patent US7790898B2, “Substituted 3-phenylpiperidine compounds, their preparation and use” (Gruenenthal GmbH, priority 2004, dated 2010)
